Measurements taken from patent US9605241B2, “Induction and stabilization of enzymatic activity in microorganisms” (Georgia State University Research Foundation, Inc., priority 2006, dated 2017).

What was measured:
asparaginase I [1] = assay: Asparaginase I production on supplemented medium; format: cell-based; conditions: asparagine and glutamine added 3.8 mM
Method: The induction of asparaginase I production in various nitrile hydratase producing microorganisms was evaluated. All strains were grown on YEMEA medium containing 7.5 g/L of urea and 10 ppm cobalt (provided as cobalt chloride) supplemented with asparagine (ASN), glutamine (GLN), or both asparagine and glutamine. The asparagine and glutamine were added 3.8 mM. As a comparative, enzyme production was also evaluated with supplementation was with acrylonitrile (AN), acrylamide (AMD) or acrylonitrile and acrylamide. Growth temperature was in the range of 26° C. to 30° C.

nitrile hydratase = assay: Nitrile hydratase induction by inducers (Example 1); format: cell-based, Rhodococcus sp., strain DAP 96253; conditions: Table 1 comparison
Method: The induction of nitrile hydratase activity and amidase activity in Rhodococcus sp., strain DAP 96253, was evaluated using multiple types of inducers (1000 ppm). Three different samples were cultured in YEMEA medium containing 10 ppm cobalt and 7.5 g/L urea and supplemented with acrylonitrile, asparagine, or glutamine. The specific nitrile hydratase activity and the specific amidase activity in each sample was evaluated, and the results are provided below in Table 1, with activities provided in units/mg cdw (cell dry weight). One unit of nitrile hydratase activity relates to the ability to convert 1 Arnol of acrylonitrile to its corresponding amide per minute, per milligram of cells (dry weight) at a of pH 7.0 and a temperature of 30° C. One unit of amidase activity relates to the ability to convert […] of acrylamide to its corresponding acid per minute, per milligram of cells (dry weight) pH of 7.0 and a temperature of 30° C.

asparaginase I [2] = assay: Effect of inducer and media composition on asparaginase I; format: cell-based; conditions: Rhodococcus sp. DAP 96253; inducer 1000 ppm
Method: Testing was performed to evaluate the effect on asparaginase I activity based upon the inducer used. In particular, testing was performed using asparagine, glutamine, succinonitrile, and isovaleronitrile as inducers (all added at 1000 ppm each).

Row | SMILES | ability to induce nitrile hydratase activity compared with acrylonitrile (nitrile hydratase) | ability to induce asparaginase I activity (in words) (asparaginase I [2]) | also measured
1 | C=CC#N [Acrylonitrile, acrylonitrile] | – | – | Asparaginase I Level Based on Growth Medium Supplementation (asparaginase I [1]; Pseudomonas chloroaphis ATCC 13985, 26 °C): 2 Units/mg cdw; Asparaginase I Level Based on Growth Medium Supplementation (asparaginase I [1]; Rhodococcus rhodochrous DAP 96622 ATCC 55898, 26 °C): 8.2 Units/mg cdw; Asparaginase I Level Based on Growth Medium Supplementation (asparaginase I [1]; Rhodococcus sp. DAP 96253 ATCC 55899, 30 °C): 7.8 Units/mg cdw
2 | NC(=O)C[C@H](N)C(=O)O [Asparagine, asparagine] | exceeds the ability of acrylonitrile to induce such activity | – | –
3 | NC(=O)CC[C@H](N)C(=O)O [Glutamine, glutamine] | exceeds the ability of acrylonitrile to induce such activity | showed an ability to induce asparaginase I activity | Asparaginase I Level Based on Growth Medium Supplementation (asparaginase I [1]; Pseudomonas chloroaphis ATCC 43051, 30 °C): No
4 | N#CCCC#N [Succinonitrile, succinonitrile] | – | showed an ability to induce asparaginase I activity | –
